Consider two compounds from ChEMBL document CHEMBL1135754, “Arylsulfonamidothiazoles as a new class of potential antidiabetic drugs. Discovery of potent and selective inhibitors of the 11beta-hydroxysteroid dehydrogenase type 1” (J Med Chem, 2002).

Molecules are shown by their SMILES. pIC50: −log10 of the molar value. Active and inactive are the calls of the source. No cut-off for these calls is given here. Where only a bound is given, the exact number is not on record here.

Test [1] concerns the target T1, 11-beta-hydroxysteroid dehydrogenase 1 (Mus musculus, UniProt P50172). Kind of test: In vitro inhibitory activity against mouse 11 beta hydroxysteroid dehydrogenase type 1 using scintillation proximity assay (SPA).
For test [2], the target named is 11-beta-hydroxysteroid dehydrogenase type 2 (Mus musculus) (UniProt P51661). Put plainly: Inhibitory activity against mouse 11 beta hydroxysteroid dehydrogenase type 2 at a concentration of 0.2 mM; NI means no inhibition.
The target in test [3] is 11-beta-hydroxysteroid dehydrogenase type 2 (Homo sapiens, UniProt P80365). Put plainly: Ability to convert [3H]cortisol to the tritium labeled cortisone in the presence of human 11 beta hydroxysteroid dehydrogenase type 2.
In test [4] the target is T1, 11-beta-hydroxysteroid dehydrogenase 1. Kind of test: In vitro inhibitory activity against mouse 11 beta hydroxysteroid dehydrogenase type 1 using scintillation proximity assay (SPA).

Chain of 11-beta-hydroxysteroid dehydrogenase type 2 (P80365 whole entry, looked up): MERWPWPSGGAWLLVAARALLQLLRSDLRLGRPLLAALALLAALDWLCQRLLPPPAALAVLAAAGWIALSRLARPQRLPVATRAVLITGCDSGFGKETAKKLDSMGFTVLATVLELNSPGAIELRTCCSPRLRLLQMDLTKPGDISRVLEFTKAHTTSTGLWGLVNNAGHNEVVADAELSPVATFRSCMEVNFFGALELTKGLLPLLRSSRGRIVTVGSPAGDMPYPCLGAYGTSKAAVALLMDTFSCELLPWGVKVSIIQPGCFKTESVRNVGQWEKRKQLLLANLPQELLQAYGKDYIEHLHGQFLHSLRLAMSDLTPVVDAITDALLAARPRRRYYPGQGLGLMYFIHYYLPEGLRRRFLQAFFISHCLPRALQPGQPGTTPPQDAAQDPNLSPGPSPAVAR
Chain of 11-beta-hydroxysteroid dehydrogenase type 2 (Mus musculus) (P51661 whole entry, looked up): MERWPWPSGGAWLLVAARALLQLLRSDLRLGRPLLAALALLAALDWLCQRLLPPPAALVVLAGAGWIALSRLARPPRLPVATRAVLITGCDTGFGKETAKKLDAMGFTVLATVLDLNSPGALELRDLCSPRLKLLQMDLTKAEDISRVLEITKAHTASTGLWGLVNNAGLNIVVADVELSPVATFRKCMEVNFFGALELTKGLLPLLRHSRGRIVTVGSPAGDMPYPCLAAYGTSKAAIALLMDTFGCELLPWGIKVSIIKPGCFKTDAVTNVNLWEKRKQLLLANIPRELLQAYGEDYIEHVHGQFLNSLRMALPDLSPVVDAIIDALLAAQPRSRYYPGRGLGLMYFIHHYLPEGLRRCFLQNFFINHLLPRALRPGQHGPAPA

For the compound `Cc1c(Cl)cccc1S(=O)(=O)Nc1nc(CC(=O)N2CCN(C)CC2)cs1`, the results for the pIC50 in test [1] and in test [3] were […] and less than 5.00, respectively. In addition, the NI entry in test [2] was “inactive”.
For `CCN(CC)C(=O)Cc1csc(NS(=O)(=O)c2cccc(Cl)c2C)n1`, the figures for the negative logarithm of the IC50 (pIC50) in test [4] and in test [3] were […] and less than 5.00, respectively.
